Tests used:
Surinam grass = assay: Test B pre-/postemergence herbicide test; assay type: in vivo, Urochloa decumbens; conditions: for Surinam Grass plant response rating: postemergence
Summary of the method: (§1)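 Evaluation is visual, comparing treated with control plants on a scale where 0 means no effect and 100 means full control. Treatments were preemergence, or postemergence on seedlings 2–18 cm tall, and held 13–15 days in the greenhouse.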

barnyardgrass [1] = assay: Test A pre-/postemergence herbicide test; assay type: in vivo, Echinochloa crus-galli
Summary of the method: (§2)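 Greenhouse injury scoring (0–100, complete control = 100) at approximately ten days follows simultaneous pre- and postemergence application. Soil received a directed spray after seeding; seedlings of 2–10 cm at the one- to two-leaf stage were sprayed to runoff.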

ducksalad = assay: Test B flooded paddy test; assay type: in vivo, Heteranthera limosa; conditions: 1000 g ai/ha, scale 0 to 100 (0 no effect, 100 complete control)
Summary of the method: (§3)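 Postemergence plants were sprayed with formulated test chemicals at 2 to 18 cm height (1- to 4-leaf stage); paddy species were grown to the 2-leaf stage. After 13 to 15 days in a greenhouse, injury was rated visually against untreated controls on a 0–100 scale (0 = no effect, 100 = complete control).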

large crabgrass [2] = assay: Test B pre-/postemergence herbicide test; assay type: in vivo, Digitaria sanguinalis; conditions: for Crabgrass, Large plant response rating: postemergence
Summary of the method: as §1

barnyardgrass [3] = assay: Test B pre-/postemergence herbicide test; assay type: in vivo, Echinochloa crus-galli; conditions: for Barnyardgrass plant response rating: postemergence
Summary of the method: (§4)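 Seeds were planted and treated preemergence with compounds formulated in a non-phytotoxic solvent mixture containing surfactant, while plants at the 1- to 4-leaf stage (2 to 18 cm) received postemergence sprays. Flooded paddy plants were grown to the 2-leaf stage. After 13 to 15 days in a greenhouse, injury was visually rated 0–100 against untreated controls.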

wild oat = assay: Test B postemergence herbicide test; assay type: in vivo, Avena fatua; conditions: postemergence
Summary of the method: (§5)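 Each value is a visual 0–100 response rating taken against controls 13 to 15 days after treatment in the greenhouse. Plants received formulated chemical postemergence at the 1- to 4-leaf stage or, in flooded paddy, at the 2-leaf stage.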

pigweed = assay: Test B pre-/postemergence herbicide test; assay type: in vivo, Amaranthus retroflexus; conditions: for Pigweed plant response rating: postemergence
Summary of the method: as §1

giant foxtail [4] = assay: Test B pre-/postemergence herbicide test; assay type: in vivo, Setaria faberi; conditions: for Foxtail, Giant plant response rating: postemergence
Summary of the method: as §1

[5] = test system: small flower umbrella sedge; assay: Test B flooded paddy test; assay type: in vivo, Cyperus difformis; conditions: 1000 g ai/ha, scale 0 to 100 (0 no effect, 100 complete control)
Summary of the method: as §3

large crabgrass [6] = assay: Test A pre-/postemergence herbicide test; assay type: in vivo, Digitaria sanguinalis
Summary of the method: as §2

velvetleaf [7] = assay: Test A pre-/postemergence herbicide test; assay type: in vivo, Abutilon theophrasti
Summary of the method: as §2

lambsquarters = assay: Test B pre-/postemergence herbicide test; assay type: in vivo, Chenopodium album; conditions: for Lambsquarters plant response rating: postemergence
Summary of the method: as §1

rice [8] = assay: Test B pre-/postemergence herbicide test; assay type: in vivo, Oryza sativa; conditions: 0 = no effect, 100 = complete control, preemergence
Summary of the method: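 Plants compared with untreated controls 13–15 days post-treatment and given a visual 0–100 injury score. Applications: preemergence to seeds; postemergence at 1- to 4-leaf (2–18 cm); paddy species flooded, 2-leaf stage. Vehicle non-phytotoxic, surfactant included.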

morningglory [9] = assay: Test A pre-/postemergence herbicide test; assay type: in vivo, Ipomoea spp.
Summary of the method: as §2

barnyardgrass [10] = assay: Test B flooded paddy test; assay type: in vivo, Echinochloa crus-galli; conditions: 1000 g ai/ha, scale 0 to 100 (0 no effect, 100 complete control)
Summary of the method: as §3

blackgrass = assay: Test B postemergence herbicide test; assay type: in vivo, Alopecurus myosuroides; conditions: postemergence
Summary of the method: as §3

morningglory [11] = assay: Test B pre-/postemergence herbicide test; assay type: in vivo, Ipomoea coccinea; conditions: for Morningglory plant response rating: postemergence
Summary of the method: as §4

rice [12] = assay: Test B flooded paddy test; assay type: in vivo, Oryza sativa; conditions: 1000 g ai/ha, scale 0 to 100 (0 no effect, 100 complete control)
Summary of the method: as §5

corn = assay: Test B pre-/postemergence herbicide test; assay type: in vivo, Zea mays; conditions: for Corn plant response rating: postemergence
Summary of the method: as §1

redroot pigweed = assay: Test A pre-/postemergence herbicide test; assay type: in vivo, Amaranthus retroflexus
Summary of the method: as §2

velvetleaf [13] = assay: Test B pre-/postemergence herbicide test; assay type: in vivo, Abutilon theophrasti; conditions: for Velvetleaf plant response rating: postemergence
Summary of the method: as §1

wheat = assay: Test B postemergence herbicide test; assay type: in vivo, Triticum aestivum; design: key to Wheat plant response rating: 0 = no effect, 100 = complete control; conditions: postemergence
Summary of the method: as §5

cocklebur = assay: Test B pre-/postemergence herbicide test; assay type: in vivo, Xanthium strumarium; conditions: for Cocklebur plant response rating: postemergence
Summary of the method: as §4

giant foxtail [14] = assay: Test A pre-/postemergence herbicide test; assay type: in vivo, Setaria faberi
Summary of the method: as §2

[15] = 125 g ai/ha, 0 = no effect, 100 = complete control, preemergence
[16] = 500 g ai/ha, visual rating, 0 = no effect, 100 = complete control, preemergence
[17] = 125 g ai/ha, visual rating, scale 0 (no effect) to 100 (complete control)
[18] = 500 g ai/ha, scale 0 to 100, 0 is no effect, 100 is complete control
[19] = Postemergence, 500 g ai/ha, 0 to 100 scale, 0 no effect, 100 complete control
[20] = Postemergence, 2000 g ai/ha, 0 to 100 scale, 0 no effect, 100 complete control
[21] = Preemergence, 2000 g ai/ha, visual rating, 0 to 100 scale (0 no effect, 100 complete control)
[22] = preemergence, 500 g ai/ha, visual injury, 0 to 100 scale (0 no effect, 100 complete control)

SMILES: C#CCNC(=O)c1ccc(F)c(NC(=O)c2cc(C(C)(C)C)nn2CC)n1 [Compound 279]
- Surinam Grass plant response rating (0 to 100 scale) (Surinam grass; [15]): 0
- Plant response rating, Surinam Grass (Surinam grass; [16]): 40
- Surinam Grass plant response rating (Surinam grass; [17]): 10
- Surinam Grass plant response rating (Surinam grass; [18]): 10
- Barnyardgrass plant response rating (barnyardgrass [1]; [19]): 20
- Plant response rating, Barnyardgrass (barnyardgrass [1]; [20]): 40
- Barnyardgrass plant response rating (barnyardgrass [1]; [21]): 55
- Barnyardgrass plant response rating (barnyardgrass [1]; [22]): 5
- Ducksalad plant response rating (ducksalad): 60
- Crabgrass, Large plant response rating (0 to 100 scale) (large crabgrass [2]; [15]): 10
- Plant response rating, Crabgrass, Large (large crabgrass [2]; [16]): 80
- Crabgrass, Large plant response rating (large crabgrass [2]; [17]): 0
- Crabgrass, Large plant response rating (large crabgrass [2]; [18]): 10
- Barnyardgrass plant response rating (0 to 100 scale) (barnyardgrass [3]; [15]): 20
- Plant response rating, Barnyardgrass (barnyardgrass [3]; [16]): 40
- Barnyardgrass plant response rating (barnyardgrass [3]; [17]): 0
- Barnyardgrass plant response rating (barnyardgrass [3]; [18]): 10
- Oat, Wild plant response rating (wild oat; [17]): 20
- Oat, Wild plant response rating (wild oat; [18]): 20
- Pigweed plant response rating (0 to 100 scale) (pigweed; [15]): 90
- Plant response rating, Pigweed (pigweed; [16]): 100
- Pigweed plant response rating (pigweed; [17]): 30
- Pigweed plant response rating (pigweed; [18]): 30
- Foxtail, Giant plant response rating (0 to 100 scale) (giant foxtail [4]; [15]): 10
- Plant response rating, Foxtail, Giant (giant foxtail [4]; [16]): 30
- Foxtail, Giant plant response rating (giant foxtail [4]; [17]): 0
- Foxtail, Giant plant response rating (giant foxtail [4]; [18]): 0
- Sedge, Umbrella plant response rating [5]: 60
- Crabgrass, Large plant response rating (large crabgrass [6]; [19]): 10
- Plant response rating, Crabgrass, Large (large crabgrass [6]; [20]): 20
- Crabgrass, Large plant response rating (large crabgrass [6]; [21]): 70
- Crabgrass, Large plant response rating (large crabgrass [6]; [22]): 70
- Velvetleaf plant response rating (velvetleaf [7]; [19]): 20
- Plant response rating, Velvetleaf (velvetleaf [7]; [20]): 20
- Velvetleaf plant response rating (velvetleaf [7]; [21]): 30
- Velvetleaf plant response rating (velvetleaf [7]; [22]): 10
- Lambsquarters plant response rating (0 to 100 scale) (lambsquarters; [15]): 100
- Plant response rating, Lambsquarters (lambsquarters; [16]): 100
- Lambsquarters plant response rating (lambsquarters; [17]): 10
- Lambsquarters plant response rating (lambsquarters; [18]): 20
- Rice plant response rating (0 to 100 scale) (rice [8]; 125 g ai/ha): 20
- Plant response rating, Rice (rice [8]; 500 g ai/ha, visual rating): 50
- Morningglory plant response rating (morningglory [9]; [19]): 5
- Plant response rating, Morningglory (morningglory [9]; [20]): 5
- Morningglory plant response rating (morningglory [9]; [21]): 20
- Morningglory plant response rating (morningglory [9]; [22]): 10
- Barnyardgrass plant response rating (barnyardgrass [10]): 10
- Blackgrass plant response rating (blackgrass; [17]): 10
- Blackgrass plant response rating (blackgrass; [18]): 30
- Morningglory plant response rating (0 to 100 scale) (morningglory [11]; [15]): 0
- Plant response rating, Morningglory (morningglory [11]; [16]): 0
- Morningglory plant response rating (morningglory [11]; [17]): 0
- Morningglory plant response rating (morningglory [11]; [18]): 20
- Rice plant response rating (rice [12]): 40
- Corn plant response rating (0 to 100 scale) (corn; [15]): 0
- Plant response rating, Corn (corn; [16]): 0
- Corn plant response rating (corn; [17]): 10
- Corn plant response rating (corn; [18]): 10
- Pigweed plant response rating (redroot pigweed; [19]): 70
- Plant response rating, Pigweed (redroot pigweed; [20]): 60
- Pigweed plant response rating (redroot pigweed; [21]): 100
- Pigweed plant response rating (redroot pigweed; [22]): 95
- Velvetleaf plant response rating (0 to 100 scale) (velvetleaf [13]; [15]): 0
- Plant response rating, Velvetleaf (velvetleaf [13]; [16]): 20
- Velvetleaf plant response rating (velvetleaf [13]; [17]): 10
- Velvetleaf plant response rating (velvetleaf [13]; [18]): 10
- Wheat plant response rating (wheat; [17]): 30
- Wheat plant response rating (wheat; [18]): 30
- Cocklebur plant response rating (0 to 100 scale) (cocklebur; [15]): 0
- Plant response rating, Cocklebur (cocklebur; [16]): 0
- Cocklebur plant response rating (cocklebur; [17]): 0
- Cocklebur plant response rating (cocklebur; [18]): 20
- Foxtail, Giant plant response rating (giant foxtail [14]; [19]): 10
- Plant response rating, Foxtail, Giant (giant foxtail [14]; [20]): 20
- Foxtail, Giant plant response rating (giant foxtail [14]; [21]): 60
- Foxtail, Giant plant response rating (giant foxtail [14]; [22]): 25
